Experimental data from patent publication US8026243B2, “[4,5′]Bipyrimidinyl-6,4′-diamine derivatives as protein kinase inhibitors” (Novartis AG, priority 2006, dated 2011).

Each molecule was assayed against T1, Ba/F3-TEL-FGFR3 cells (Homo sapiens, UniProt P22607) (assay: FGFR3 cellular assay: proliferation of transformed Ba/F3-TEL-FGFR3 cells (AlamarBlue)). Details: 48 hours incubation, class symbols.
T1 construct: fused on or other part: The N-terminal oligomerising part of TEL (ETV6) is fused before the intracellular kinase part of FGFR3; P41212 (Transcription factor ETV6)
Type: cell-based
How it was run: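 Ba/F3-TEL-FGFR3 cells (5000/well) in RPMI 1640 with 10% FBS, exposed to twelve-point 1:3 compound dilutions for 48 h. Proliferation read by AlamarBlue (10% final, 4 h at 37 °C), fluorescence Ex530/Em580; IC50 from linear regression of percent inhibition.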

T1 sequence (P22607 whole entry, change not shown, the tested form may be a part): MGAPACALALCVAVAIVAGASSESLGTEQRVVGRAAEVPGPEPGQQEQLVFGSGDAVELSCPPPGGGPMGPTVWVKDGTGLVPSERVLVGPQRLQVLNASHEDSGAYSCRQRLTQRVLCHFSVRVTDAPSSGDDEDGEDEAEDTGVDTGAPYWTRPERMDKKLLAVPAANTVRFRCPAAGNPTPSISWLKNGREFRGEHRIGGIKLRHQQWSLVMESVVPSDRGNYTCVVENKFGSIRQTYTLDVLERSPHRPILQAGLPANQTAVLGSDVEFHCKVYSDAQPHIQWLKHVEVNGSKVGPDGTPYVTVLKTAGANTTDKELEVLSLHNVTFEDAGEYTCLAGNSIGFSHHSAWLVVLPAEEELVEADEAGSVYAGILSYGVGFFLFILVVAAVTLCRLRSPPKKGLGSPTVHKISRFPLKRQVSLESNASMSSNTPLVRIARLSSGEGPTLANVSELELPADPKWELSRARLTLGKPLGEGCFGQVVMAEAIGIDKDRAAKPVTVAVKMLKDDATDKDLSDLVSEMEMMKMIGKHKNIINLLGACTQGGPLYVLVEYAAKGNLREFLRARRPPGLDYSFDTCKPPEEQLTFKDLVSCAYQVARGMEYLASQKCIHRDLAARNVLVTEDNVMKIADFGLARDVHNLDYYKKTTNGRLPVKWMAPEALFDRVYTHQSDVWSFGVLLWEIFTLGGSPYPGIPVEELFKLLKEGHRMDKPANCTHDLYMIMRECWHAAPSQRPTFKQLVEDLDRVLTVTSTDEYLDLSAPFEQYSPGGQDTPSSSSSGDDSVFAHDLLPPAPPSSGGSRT

Row | GI50 [nM] | Compound
1 | < 100 | CCN1CCN(Cc2ccc(NC(=O)c3cc(OC)c(Cl)c(Nc4ncncc4-c4cc(Nc5ccc(CN6CCOCC6)cn5)ncn4)c3Cl)cc2C(F)(F)F)CC1 [Compound 93, 2,4-dichloro-N-(4-((4-ethylpiperazin-1-yl)methyl)-3-(trifluoromethyl)phenyl)-5-methoxy-3-(6-(5-(morpholinomethyl)pyridin-2-ylamino)-4,5′-bipyrimidin-4′-ylamino)benzamide]
2 | < 100 | COc1cc(OC)c(Cl)c(Nc2nccnc2-c2cc(Nc3ccc(CN4CCOCC4)cn3)ncn2)c1Cl [Compound 94, {6-[3-(2,6-Dichloro-3,5-dimethoxy-phenylamino)-pyrazin-2-yl]-pyrimidin-4-yl}-(5-morpholin-4-ylmethyl-pyridin-2-yl)-amine]
3 | < 100 | COc1cc(OC)c(Cl)c(Nc2nccnc2-c2cc(Nc3ccc(CN4CCOCC4)cn3)ncn2)c1F [Compound 95, {6-[3-(2-chloro-3,5-dimethoxy-6-fluoro phenylamino)-pyrazin-2-yl]-pyrimidin-4-yl}-(5-morpholin-4-ylmethyl-pyridin-2-yl)-amine]
4 | < 100 | COc1cc(OC)c(Cl)c(Nc2nccnc2-c2cc(Nc3cc(CN4CCOCC4)ccn3)ncn2)c1Cl [Compound 96, {6-[3-(2,6-Dichloro-3,5-dimethoxy-phenylamino)-pyrazin-2-yl]-pyrimidin-4-yl}-(4-morpholin-4-ylmethyl-pyridin-2-yl)-amine]
5 | < 100 | COc1cc(OC)c(Cl)c(Nc2nccnc2-c2cc(Nc3cc(CN4CCOCC4)ccn3)ncn2)c1F [Compound 97, {6-[3-(2-chloro-3,5-dimethoxy-6-fluoro phenylamino)-pyrazin-2-yl]-pyrimidin-4-yl}-(4-morpholin-4-ylmethyl-pyridin-2-yl)-amine]
6 | < 100 | COc1cc(OC)c(Cl)c(Nc2nccnc2-c2cc(Nc3ccc(CN4CCN(CCO)CC4)cn3)ncn2)c1Cl [Compound 100]
7 | < 100 | COc1cc(OC)c(Cl)c(Nc2nccnc2-c2cc(Nc3ccc(CN4CCN(C(=O)CO)CC4)cn3)ncn2)c1Cl [Compound 101]
8 | < 100 | COc1cc(OC)c(Cl)c(Nc2nccnc2-c2cc(Nc3ccc(C(C)O)cn3)ncn2)c1Cl (stereo not shown) [Compound 102, {6-[3-(2,6-Dichloro-3,5-dimethoxy-phenylamino)-pyrazin-2-yl]-pyrimidin-4-yl}-(5-[1-hydroxyethyl]-pyridin-2-yl)-amine]
9 | < 100 | COc1ccc(F)c(Nc2nccnc2-c2cc(Nc3ccc(CN4CCOCC4)cn3)ncn2)c1F [Compound 104, {6-[3-(2,6-Difluoro-3-methoxy-phenylamino)-pyrazin-2-yl]-pyrimidin-4-yl}-N-(5-(morpholin-4-ylmethyl)-pyridin-2-yl)-amine]
10 | < 100 | COc1ccc(F)c(Nc2nccnc2-c2cc(Nc3cc(CN4CCOCC4)ccn3)ncn2)c1F [Compound 105, {6-[3-(2,6-Difluoro-3-methoxy-phenylamino)-pyrazin-2-yl]-pyrimidin-4-yl}-(4-(morpholin-4-ylmethyl)-pyridin-2-yl)-amine]
11 | < 100 | Nc1cc(-c2nccnc2Nc2c(Cl)cccc2Cl)ncn1 [Compound 106, 6-(3-(2,6-dichlorophenylamino)pyrazin-2-yl)pyrimidin-4-amine]

Same assay, conditions: 48 hours incubation, given as bound

Row | GI50 [nM] | Compound
12 | > 500 | COc1ccc(F)c(Nc2nccnc2-c2cc(N)ncn2)c1F [Compound 103, {6-[3-(2,6-Difluoro-3-methoxy-phenylamino)-pyrazin-2-yl]-pyrimidin-4-yl}-amine]
13 | > 500 | Clc1cccc(Cl)c1Nc1nccnc1-c1cc(Nc2ccc(CN3CCOCC3)cn2)ncn1 [Compound 107, 6-(3-(2,6-dichlorophenylamino)pyrazin-2-yl)-N-(5-(morpholinomethyl)pyridin-2-yl)pyrimidin-4-amine]
